According to ChEMBL document CHEMBL4765460, “Palladium-catalysed synthesis of arylnaphthoquinones as antiprotozoal and antimycobacterial agents” (Eur J Med Chem, 2020):
In brackets after ≈: the same amount, converted by molar mass.

What was measured:
Plasmodium falciparum = test: Antiplasmodial activity against Plasmodium falciparum NF54 erythrocytic stages assessed as parasite growth inhibition preincubated overnight followed by [G-3H]hypoxanthine addition and measured after 24 hrs by liquid scintillation counting method; format: functional, organism-based
L6 = test: Cytotoxicity against rat L6 cells; format: cell-based
[1] = Selectivity index, ratio of IC50 for rat L6 cells to IC50 for Plasmodium falciparum NF54; format: toxicity; settings: read-out: Ratio IC50
[2] = system: Trypanosoma brucei rhodesiense; test: Trypanocidal activity against Trypanosoma brucei rhodesiense STIB900 trypomastigotes incubated for 72 hrs by Alamar blue assay; format: functional, organism-based; settings: STIB900, 72 h
[3] = Selectivity index, ratio of IC50 for rat L6 cells to IC50 for Trypanosoma brucei rhodesiense STIB900 trypomastigotes; format: toxicity; settings: read-out: Ratio IC50
[4] = system: Mycolicibacterium smegmatis; test: Antimycobacterial activity against Mycobacterium smegmatis mc2 155 ATCC 700084 assessed as inhibition of visible growth of bacteria by MTT assay; format: functional
[5] = system: Mycolicibacterium smegmatis; test: Antimycobacterial activity against Mycobacterium smegmatis mc2 155 ATCC 700084 assessed as fold reduction in EtBr MIC at half MIC concentration; format: functional

SMILES: O=C1C=C(c2ccccc2)C(=O)c2ccccc21
- IC50 (Plasmodium falciparum; read-out: IC50): 11 µM
- IC50 (Plasmodium falciparum; read-out: pIC50 (converted)): 11 µM
- IC50 (L6): 19.4 µM
- selectivity ratio [1]: 1.8
- IC50 ([2]; read-out: IC50): 0.06 µM
- IC50 ([2]; read-out: pIC50 (converted)): 0.055 µM
- selectivity ratio [3]: 323
- MIC [4]: 8 µg/mL (≈ 34.2 µM)
- fold change (FC) [5]: 4

SMILES: Cc1ccc(C2=CC(=O)c3ccccc3C2=O)cc1
- IC50 (Plasmodium falciparum; read-out: IC50): 3.86 µM
- IC50 (Plasmodium falciparum; read-out: pIC50 (converted)): 3.89 µM
- IC50 (L6): 7.26 µM
- selectivity ratio [1]: 1.9
- IC50 ([2]; read-out: IC50): 0.08 µM
- IC50 ([2]; read-out: pIC50 (converted)): 0.0759 µM
- selectivity ratio [3]: 90.8
- MIC [4]: 32 µg/mL (≈ 129 µM)
- fold change (FC) [5]: 2

SMILES: O=C1C=C(c2ccc(Cl)nc2)C(=O)c2ccccc21
- IC50 (Plasmodium falciparum; read-out: IC50): 0.07 µM
- IC50 (Plasmodium falciparum; read-out: pIC50 (converted)): 0.0661 µM
- IC50 (L6): 32.4 µM
- selectivity ratio [1]: 463
- IC50 ([2]; read-out: IC50): 2.2 µM
- IC50 ([2]; read-out: pIC50 (converted)): 2.19 µM
- selectivity ratio [3]: 14.7
- MIC [4]: 32 µg/mL (≈ 119 µM)
- fold change (FC) [5]: 128

SMILES: O=C1C=C(c2ccc(F)cc2)C(=O)c2ccccc21
- IC50 (Plasmodium falciparum; read-out: IC50): 1.81 µM
- IC50 (Plasmodium falciparum; read-out: pIC50 (converted)): 1.82 µM
- IC50 (L6): 9.06 µM
- selectivity ratio [1]: 5
- IC50 ([2]; read-out: IC50): 0.22 µM
- IC50 ([2]; read-out: pIC50 (converted)): 0.219 µM
- selectivity ratio [3]: 41.2
- MIC [4]: 128 µg/mL (≈ 507 µM)
- fold change (FC) [5]: >128

SMILES: N#Cc1ccc(C2=CC(=O)c3ccccc3C2=O)cc1
- IC50 (Plasmodium falciparum; read-out: IC50): 1.11 µM
- IC50 (Plasmodium falciparum; read-out: pIC50 (converted)): 1.1 µM
- IC50 (L6): 7.21 µM
- selectivity ratio [1]: 6.5
- IC50 ([2]; read-out: IC50): 0.28 µM
- IC50 ([2]; read-out: pIC50 (converted)): 0.275 µM
- selectivity ratio [3]: 25.8
- MIC [4]: 64 µg/mL (≈ 247 µM)
- fold change (FC) [5]: >128

SMILES: O=C1C=C(c2cc(F)cc(F)c2)C(=O)c2ccccc21
- IC50 (Plasmodium falciparum; read-out: IC50): 0.59 µM
- IC50 (Plasmodium falciparum; read-out: pIC50 (converted)): 0.589 µM
- IC50 (L6): 9.67 µM
- selectivity ratio [1]: 16.4
- IC50 ([2]; read-out: IC50): 0.24 µM
- IC50 ([2]; read-out: pIC50 (converted)): 0.24 µM
- selectivity ratio [3]: 40.3
- MIC [4]: > 128 µg/mL
- fold change (FC) [5]: 4

SMILES: O=C1C=C(c2cnc3ccccc3c2)C(=O)c2ccccc21
- IC50 (Plasmodium falciparum; read-out: IC50): 0.45 µM
- IC50 (Plasmodium falciparum; read-out: pIC50 (converted)): 0.447 µM
- IC50 (L6): 5.64 µM
- selectivity ratio [1]: 12.5
- IC50 ([2]; read-out: IC50): 0.22 µM
- IC50 ([2]; read-out: pIC50 (converted)): 0.224 µM
- selectivity ratio [3]: 25.6
- MIC [4]: 8 µg/mL (≈ 28 µM)
- fold change (FC) [5]: 8

SMILES: CS(=O)(=O)Nc1cccc(C2=CC(=O)c3ccccc3C2=O)c1
- IC50 (Plasmodium falciparum; read-out: IC50): 2.56 µM
- IC50 (Plasmodium falciparum; read-out: pIC50 (converted)): 2.57 µM
- IC50 (L6): 9.25 µM
- selectivity ratio [1]: 3.6
- IC50 ([2]; read-out: IC50): 0.2 µM
- IC50 ([2]; read-out: pIC50 (converted)): 0.2 µM
- selectivity ratio [3]: 46.3
- MIC [4]: > 128 µg/mL
- fold change (FC) [5]: 128

SMILES: O=C1C=C(c2ccc(Cl)cc2)C(=O)c2ccccc21
- IC50 (Plasmodium falciparum; read-out: IC50): 2.64 µM
- IC50 (Plasmodium falciparum; read-out: pIC50 (converted)): 2.63 µM
- IC50 (L6): 8.96 µM
- selectivity ratio [1]: 3.4
- IC50 ([2]; read-out: IC50): 0.22 µM
- IC50 ([2]; read-out: pIC50 (converted)): 0.224 µM
- selectivity ratio [3]: 40.7
- MIC [4]: 16 µg/mL (≈ 59.5 µM)
- fold change (FC) [5]: >128

SMILES: O=C1C=C(c2cnc(Cl)nc2)C(=O)c2ccccc21
- IC50 (Plasmodium falciparum; read-out: IC50): 0.47 µM
- IC50 (Plasmodium falciparum; read-out: pIC50 (converted)): 0.468 µM
- IC50 (L6): 1.02 µM
- selectivity ratio [1]: 2.2
- IC50 ([2]; read-out: IC50): 0.13 µM
- IC50 ([2]; read-out: pIC50 (converted)): 0.129 µM
- selectivity ratio [3]: 7.8
- MIC [4]: 4 µg/mL (≈ 14.8 µM)
- fold change (FC) [5]: 2

SMILES: O=C1C=C(c2cc3ccccc3o2)C(=O)c2ccccc21
- IC50 (Plasmodium falciparum; read-out: IC50): 25 µM
- IC50 (Plasmodium falciparum; read-out: pIC50 (converted)): 25.1 µM
- IC50 (L6): 209 µM
- selectivity ratio [1]: 8.4
- IC50 ([2]; read-out: IC50): 1.36 µM
- IC50 ([2]; read-out: pIC50 (converted)): 1.35 µM
- selectivity ratio [3]: 154
- MIC [4]: > 128 µg/mL
- fold change (FC) [5]: 2

SMILES: O=C1C=C(c2ccc(F)nc2)C(=O)c2ccccc21
- IC50 (Plasmodium falciparum; read-out: IC50): 0.11 µM
- IC50 (Plasmodium falciparum; read-out: pIC50 (converted)): 0.115 µM
- IC50 (L6): 2.1 µM
- selectivity ratio [1]: 19.1
- IC50 ([2]; read-out: IC50): 0.14 µM
- IC50 ([2]; read-out: pIC50 (converted)): 0.138 µM
- selectivity ratio [3]: 15
- MIC [4]: 16 µg/mL (≈ 63.2 µM)
- fold change (FC) [5]: >128

SMILES: O=C1C=C(c2ccc(C(=O)N3CCCCC3)cc2)C(=O)c2ccccc21
- IC50 (Plasmodium falciparum; read-out: IC50): 2.37 µM
- IC50 (Plasmodium falciparum; read-out: pIC50 (converted)): 2.34 µM
- IC50 (L6): 9.71 µM
- selectivity ratio [1]: 4.1
- IC50 ([2]; read-out: IC50): 0.75 µM
- IC50 ([2]; read-out: pIC50 (converted)): 0.741 µM
- selectivity ratio [3]: 12.9
- MIC [4]: 32 µg/mL (≈ 92.6 µM)
- fold change (FC) [5]: 8

SMILES: O=C1C=C(c2ccc(C(F)(F)F)cc2)C(=O)c2ccccc21
- IC50 (Plasmodium falciparum; read-out: IC50): 1.08 µM
- IC50 (Plasmodium falciparum; read-out: pIC50 (converted)): 1.07 µM
- IC50 (L6): 15.1 µM
- selectivity ratio [1]: 14
- IC50 ([2]; read-out: IC50): 0.08 µM
- IC50 ([2]; read-out: pIC50 (converted)): 0.0759 µM
- selectivity ratio [3]: 189
- MIC [4]: 128 µg/mL (≈ 423 µM)
- fold change (FC) [5]: 4

SMILES: CC(C)c1ccc(C2=CC(=O)c3ccccc3C2=O)cc1
- IC50 (Plasmodium falciparum; read-out: IC50): 2.96 µM
- IC50 (Plasmodium falciparum; read-out: pIC50 (converted)): 2.95 µM
- IC50 (L6): 20.4 µM
- selectivity ratio [1]: 6.9
- IC50 ([2]; read-out: IC50): 1.45 µM
- IC50 ([2]; read-out: pIC50 (converted)): 1.45 µM
- selectivity ratio [3]: 14.1
- MIC [4]: 64 µg/mL (≈ 232 µM)
- fold change (FC) [5]: 4

SMILES: O=C1C=C(c2ccco2)C(=O)c2ccccc21
- IC50 (Plasmodium falciparum; read-out: IC50): 2.07 µM
- IC50 (Plasmodium falciparum; read-out: pIC50 (converted)): 2.09 µM
- IC50 (L6): 7.44 µM
- selectivity ratio [1]: 3.6
- IC50 ([2]; read-out: IC50): 0.13 µM
- IC50 ([2]; read-out: pIC50 (converted)): 0.129 µM
- selectivity ratio [3]: 57.2
- MIC [4]: 128 µg/mL (≈ 571 µM)
- fold change (FC) [5]: 2

SMILES: O=C1C=C(c2cccc(OC(F)(F)F)c2)C(=O)c2ccccc21
- IC50 (Plasmodium falciparum; read-out: IC50): 0.89 µM
- IC50 (Plasmodium falciparum; read-out: pIC50 (converted)): 0.891 µM
- IC50 (L6): 23.2 µM
- selectivity ratio [1]: 26.1
- IC50 ([2]; read-out: IC50): 1.8 µM
- IC50 ([2]; read-out: pIC50 (converted)): 1.78 µM
- selectivity ratio [3]: 12.9
- MIC [4]: 64 µg/mL (≈ 201 µM)
- fold change (FC) [5]: 128

SMILES: O=C1C=C(c2ccc(OC(F)(F)F)cc2)C(=O)c2ccccc21
- IC50 (Plasmodium falciparum; read-out: IC50): 3.87 µM
- IC50 (Plasmodium falciparum; read-out: pIC50 (converted)): 3.89 µM
- IC50 (L6): 16.6 µM
- selectivity ratio [1]: 4.3
- IC50 ([2]; read-out: IC50): 2.36 µM
- IC50 ([2]; read-out: pIC50 (converted)): 2.34 µM
- selectivity ratio [3]: 7
- MIC [4]: 16 µg/mL (≈ 50.3 µM)
- fold change (FC) [5]: 128

SMILES: CC[n+]1c(-c2ccccc2)c2cc(N)ccc2c2ccc(N)cc21.[Br-] [HOMIDIUM BROMIDE]
- MIC [4]: 8 µg/mL

SMILES: NNC(=O)c1ccncc1 [ISONIAZID]
- MIC [4]: 4 µg/mL (≈ 29.2 µM)

SMILES: COc1cc([C@@H]2c3cc4c(cc3[C@H](O)[C@H]3COC(=O)[C@H]23)OCO4)cc(OC)c1OC [PODOFILOX]
- IC50 (L6): 0.024 µM
